Series [1] can be described thus: In vitro anti-tumour activity. Format: cell-based. The source says: (§1) Brsh Jowbnl d Cancer ( ) 72, 210-218 ? […] Figwe 3 Chemical stnruu of disulphonated aluminium phthalocyamne.
A short description of series [2]: Preliminary murine toxicological study. It counts as in vivo. The following applies: PET solvent system formulation.
Source text: as §1

A short description of series [3]: In vivo anti-tumour activity.
Source text: as §1

The nature of series [4]: Aqueous solubility. The following applies: water / aqueous solution.
Series [5] can be described thus: Solution stability / decomposition studies. Conditions: 66% aqueous acetone at 25 C. The source says:
Figwe 3 Chemical stnruu of disulphonated aluminium phthalocyamne.

Series [6] has as its system solid tumour models. Put plainly: Activity in solid tumour models. It counts as in vivo. The following applies: several solid tumour models.
Source text: as §1

The conditions of series [7]: in 2 h; 10% fat emulsion (Intralipid), 0.7 mg ml-1, 1% DMA, 5% Cremophor EL; ref El-Sayed and Repta 1983; cited from earlier work.

In the case of `COc1ccc(/C=C\c2cc(OC)c(OC)c(OC)c2)cc1O` [Combretastatin A4], the “in vitro anti-tumour activity” value in series [1] is reported as “excellent”. For the same molecule, the local tolerance entry in series [2] is listed as “severe irritation at the injection site”. In addition, the in vivo activity result in series [3] was “no significant”.

Turning to `CC(C)NC(=O)OCc1c(COC(=O)NC(C)C)c(-c2ccc(Cl)c(Cl)c2)n2c1CCC2` [NSC-278214, reference compound], the “aqueous solubility (in words)” value in series [4] is “negligible”. Moreover, in series [5], the half-life result is reported as “around 5 mi”. For the same molecule, the anti-tumour activity result in series [6] is on record as “activity”. Besides, in series [7], the drug decomposed result is on record as “about 10%”.

The values are drawn from publication PMC2034157, “CRC/EORTC/NCI Joint Formulation Working Party: experiences in the formulation of investigational cytotoxic drugs” (British Journal of Cancer, 1995).
